PMC11078216, “Discovery of potent and selective activity-based probes (ABPs) for the deubiquitinating enzyme USP30” (RSC Chemical Biology, 2024)
Blank lines part the entries; values can stand above or below the compound they belong to.

Biological target: T1, RTN1 (Homo sapiens, UniProt Q16799)
T1 construct: endogenous in cells; host or cells: HEK293T
T1 sequence (Q16799 1-776): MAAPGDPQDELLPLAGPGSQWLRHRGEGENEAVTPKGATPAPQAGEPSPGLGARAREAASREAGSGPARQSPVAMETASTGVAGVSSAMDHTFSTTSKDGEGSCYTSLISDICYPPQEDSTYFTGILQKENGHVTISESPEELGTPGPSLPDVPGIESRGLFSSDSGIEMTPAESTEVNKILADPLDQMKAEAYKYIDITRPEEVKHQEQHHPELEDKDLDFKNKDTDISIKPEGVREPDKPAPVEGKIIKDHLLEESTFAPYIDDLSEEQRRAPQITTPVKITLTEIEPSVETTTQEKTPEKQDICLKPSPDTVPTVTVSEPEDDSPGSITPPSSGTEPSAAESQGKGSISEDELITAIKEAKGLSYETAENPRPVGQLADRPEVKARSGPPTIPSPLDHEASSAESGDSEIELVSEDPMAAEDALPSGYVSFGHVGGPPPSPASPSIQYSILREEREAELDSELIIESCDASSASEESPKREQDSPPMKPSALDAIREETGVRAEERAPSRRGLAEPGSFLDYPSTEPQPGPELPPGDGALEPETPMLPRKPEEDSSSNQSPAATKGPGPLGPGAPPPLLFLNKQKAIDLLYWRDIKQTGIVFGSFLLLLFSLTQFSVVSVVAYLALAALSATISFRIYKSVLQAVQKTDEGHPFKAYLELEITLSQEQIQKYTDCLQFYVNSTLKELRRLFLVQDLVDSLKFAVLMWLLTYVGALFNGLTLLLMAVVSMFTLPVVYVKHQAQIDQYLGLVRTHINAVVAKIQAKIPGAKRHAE
Assay: ABPP chemical proteomics (LC-MS/MS) in HEK293T cells
Type: cell-based
Procedure: To explore the selectivity of IMP-2587 and IMP-2586 across the whole proteome, we performed quantitative activity-based protein profiling (ABPP) in HEK293T cells following treatment with IMP-2587 or IMP-2586 (Fig. 3a). After ABP incubation, cells were lysed, and probe-labelled proteins were ligated to biotinylated capture reagents.[27] […] USP30 was outcompeted by corresponding parent inhibitors for each ABP (Fig. 5b and d and Tables S3 and S5, ESI ^†), confirming the high potency and rapid engagement of IMP-2587 and IMP-2586 in cells. […] DESI1 and DESI2 are small ubiquitin-related modifier (SUMO) proteases,[3,29–32] and IMP-2587 and IMP-2586 may offer a starting point for future development of DESI ABPs. […]
d) Live cell probe incubation, lysate click chemistry and precipitation 6-well HEK293T cells were incubated with media containing compounds ABP 2 and ABP 4 at indicated […]
The cells were washed with PBS and lysed with lysis buffer (50 μL (1% (v/v) Triton X-100, 0.1% (w/v) sodium dodecyl sulfate (SDS), EDTA-free complete protease inhibitor cocktail (1×, Roche) in PBS on ice for 10 min. The lysates were scraped and transferred to corresponding Lo-Bind Eppendorfs. Each lysate was sonicated for 1 minute, and the samples centrifuges at 5,000 x g at 4 °C for 5 minutes to pellet insoluble cellular debris. The supernatant was collected, and protein concentration was determined using the DC Protein Assay (Bio-Rad) as per manufacturer’s instructions, and normalised to lowest concentrated sample (e.g. 1 mg/mL, using lysis buffer). The following “click mixture” was prepared separately, preparing 6 μL for every 100 μL of […]
Capture reagent (AzRB/AzT for ABP 2, YnT/YnB for ABP 4 10 mM in DMSO, 1 vol; final concentration […]
CuSO4 (50 mM in water, 2 vol; final concentration in reaction 1 mM)
TCEP (50 mM in water, 2 vol; final concentration in reaction 1 mM)
TBTA (10 mM in DMSO, 1 vol; final concentration in reaction 100 µM)
The click mixture was vortexed and incubated at room temperature for 2 min before 6 μL of the mixture was added to every 100 μL of lysate. […]

SMILES: N#CN1CC[C@@H](NC(=O)c2cc(-c3ccccc3Oc3ccc(N=[N+]=[N-])cc3)n[nH]2)C1 [IMP-2586]
Difference (log2 fold change of enrichment) (IMP-2586 labelling vs DMSO, 30 nM, 10 min, HEK293T (Table S4, Fig.5c)): 1.53

SMILES: C#Cc1cccc(-c2cc(NC(=O)CC3CCN(C#N)C3)on2)c1 (stereo not drawn) [IMP-2587]
Difference (log2 fold change of enrichment) (IMP-2587 labelling vs DMSO, 30 nM, 10 min, HEK293T (Table S2, Fig.5a)): 1.77

Difference (log2 fold change of enrichment) (compound 1 out-competition with IMP-2587 labelling, HEK293T (Table S3, Fig.5b)): -0.69
SMILES: N#CN1CC[C@H](CC(=O)Nc2cc(-c3cccc(Cl)c3)no2)C1 [compound 1, reference compound]
